# Measured values: patent US20220306587A1, “COMPOUNDS AND USE THEREOF FOR THE TREATMENT OF INFECTIOUS DISEASES AND CANCER” (AC BIOSCIENCE SA, priority 2019, published 2022)
# Tests used:
# [1] = biological target: T1, recombinant human Pyridoxal kinase (PDXK) (Homo sapiens, UniProt O00764); test: In vitro phosphorylation by recombinant human pyridoxal kinase (ADP formation, ADPglo luminescence); type: biochemical; conditions: 200 μM compound, 10 μg/ml rhPDXK, 1 mM ATP, 1 hour at 37° C.; FIG. 2
# T1 sequence (O00764 1-312): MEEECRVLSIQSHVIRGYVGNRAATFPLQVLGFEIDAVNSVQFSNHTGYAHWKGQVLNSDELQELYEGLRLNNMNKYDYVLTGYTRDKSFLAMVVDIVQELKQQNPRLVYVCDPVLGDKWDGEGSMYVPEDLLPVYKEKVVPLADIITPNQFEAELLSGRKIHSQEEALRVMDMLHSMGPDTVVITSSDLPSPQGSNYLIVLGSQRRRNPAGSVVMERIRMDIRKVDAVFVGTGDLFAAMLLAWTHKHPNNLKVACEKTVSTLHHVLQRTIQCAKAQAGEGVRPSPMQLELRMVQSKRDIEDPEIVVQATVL
# Procedure: ACB1906, A6770, 4-DOP (200 μM) and pyridoxal HCL (1 mM) were incubated with 10 μg/ml rhPDXK for 1 hour at 37° C. in the presence of 1 mM ATP containing—10 mM HEPES buffer with 0.05% Triton X-100, 0.01% Plurogenic F127, 25 μM Na3VO4 and 250 μM MgCl2. ADP formation was measured using the luminescence-based ADPglo kit from Promega. Statistical significance determined by Anova. *denotes p<0.05.
# ACB1906's ability to be phosphorylated by recombinant human Pyridoxal kinase (PDXK) in vitro was compared to the structurally similar known imidazole S1PL inhibitor A6770, the PDXK and S1PL non-specific inhibitor 4-deoxypyridoxine (4-DOP) and the natural pyridoxal ligand. […] Increased phosphorylation of thiazole compounds confers an advantage in therapeutic applications as this would be a limiting step for its ability to effect a therapeutically relevant modulation in S1P levels.
# [2] = biological target: T1, recombinant human Pyridoxal kinase (PDXK); conditions: already reported; cited from earlier work
# S1P lyase = biological target: T2, S1P lyase (Mus musculus, UniProt Q8R0X7); conditions: administered to mice; cited from earlier work
# T2 construct: host or cells: mice (in vivo)
# T2 sequence (Q8R0X7 1-568): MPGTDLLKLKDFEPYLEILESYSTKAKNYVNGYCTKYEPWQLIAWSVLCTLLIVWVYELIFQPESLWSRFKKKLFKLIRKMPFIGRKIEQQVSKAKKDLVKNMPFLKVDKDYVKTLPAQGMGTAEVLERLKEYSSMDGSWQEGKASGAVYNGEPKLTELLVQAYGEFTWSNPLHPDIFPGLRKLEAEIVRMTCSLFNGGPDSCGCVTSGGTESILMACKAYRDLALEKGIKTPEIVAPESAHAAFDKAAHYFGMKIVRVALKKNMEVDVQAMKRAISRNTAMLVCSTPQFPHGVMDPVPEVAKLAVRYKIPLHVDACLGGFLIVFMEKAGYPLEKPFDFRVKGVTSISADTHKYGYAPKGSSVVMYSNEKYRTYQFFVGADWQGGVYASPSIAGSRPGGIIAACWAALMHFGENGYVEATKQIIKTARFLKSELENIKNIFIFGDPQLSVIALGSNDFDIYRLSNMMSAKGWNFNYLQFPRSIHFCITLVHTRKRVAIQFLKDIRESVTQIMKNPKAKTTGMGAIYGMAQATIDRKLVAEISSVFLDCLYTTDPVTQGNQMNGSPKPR
structure (smiles),measurement,setting,value
CC(=O)c1nc(CO)cs1 [Compound 6],ability to be phosphorylated (ADP formation) in comparison to A6770,[1],~2 fold
"CC(=O)c1nc(CO)c[nH]1 [Compound A6770, 1-(4-(Hydroxymethyl)-1H-imidazol-2-yl)ethan-1-one]",phosphorylation by PDXK to A6770-P,[2],reported to phosphorylate
"CC(=O)c1nc([C@@H](O)[C@H](O)[C@H](O)CO)c[nH]1 [THI, 1-(4-((1R,2S,3R)-1,2,3,4-Tetrahydroxybutyl)-1H-imidazol-2-yl)ethan-1-one]",S1P lyase activity,S1P lyase,inhibits S1P lyase activity
